Laboratory results: patent US10870638B2, “Pyridazinone compound or its salt, and herbicide containing it” (ISHIHARA SANGYO KAISHA, LTD., priority 2016, dated 2020)

Tests used:
Assay type in all cases: in vivo
Details in all cases: active ingredient amount 31 g/ha, 14th day after application
[1] = test system: barnyardgrass (Echinochloa crus-qalli L.); experiment: Test Example 1: foliar treatment, growth inhibition rate on 14th day
Procedure, shortened: (§1)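 Using a small sprayer, formulated compound in water (0.1 vol % surfactant, 1,000 L/ha) was applied to seedlings grown from seed in upland soil. Fourteen days on, growth state was observed and expressed as percent inhibition from 0 to 100.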

corn (Zea mays L.) [2] = experiment: as above
Procedure, shortened: as §1

[3] = test system: crabgrass (Digitaria sanquinalis L.); experiment: as above
Procedure, shortened: as §1

[4] = test system: green foxtail (Setaria viridis L.); experiment: as above
Procedure, shortened: as §1

[5] = test system: italian ryegrass (Lolium multiflorum Lam.); experiment: as above
Procedure, shortened: as §1

[6] = test system: redroot pigweed (Amaranthus retroflexus L.); experiment: as above
Procedure, shortened: as §1

rice (Oryza sativa L.) [7] = experiment: as above
Procedure, shortened: as §1

[8] = test system: soybean (Glycine max Merr.); experiment: as above
Procedure, shortened: as §1

[9] = test system: wheat (Triticum aestivum L.); experiment: as above
Procedure, shortened: as §1

[10] = test system: wild oat (Avena fatua L.); experiment: as above
Procedure, shortened: as §1

[11] = test system: barnyardgrass (Echinochloa crus-qalli L.); experiment: Test Example 2: soil application on the day after sowing, growth inhibition rate on 14th day
Procedure, shortened: (§2)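 Herbicidal effect is assessed on pot-grown plants after a soil spray applied the day after sowing at prescribed active ingredient rates. Scoring occurs visually at day 14 as growth inhibition (%).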

corn (Zea mays L.) [12] = experiment: as above
Procedure, shortened: as §2

[13] = test system: crabgrass (Digitaris sanquinalis L.); experiment: as above
Procedure, shortened: as §2

[14] = test system: green foxtail (Setaria viridis L.); experiment: as above
Procedure, shortened: as §2

[15] = test system: prickly sida (Sida spinosa L.); experiment: as above
Procedure, shortened: as §2

[16] = test system: redroot pigweed (Amaranthus retroflexus L.); experiment: as above
Procedure, shortened: as §2

rice (Oryza sativa L.) [17] = experiment: as above
Procedure, shortened: as §2

[18] = test system: soybean (Glycine max Merr.); experiment: as above
Procedure, shortened: as §2

[19] = test system: velvetleaf (Abutilon theophrasti MEDIC.); experiment: as above
Procedure, shortened: as §2

[20] = test system: wheat (Triticum aestivum L.); experiment: as above
Procedure, shortened: as §2

[21] = visual, 0 = non-treated, 100 = complete kill

Structure (SMILES)	Growth inhibition rate (%) Barnyardgrass [1] [%]	Growth inhibition rate (%) Corn (corn (Zea mays L.) [2]) [%]	Growth inhibition rate (%) Crabgrass [3] [%]	Growth inhibition rate (%) Green foxtail [4] [%]	Growth inhibition rate (%) Italian ryegrass [5] [%]	Growth inhibition rate (%) Redroot pigweed [6] [%]	Growth inhibition rate (%) Rice (rice (Oryza sativa L.) [7]) [%]	Growth inhibition rate (%) Soybean [8] [%]	Growth inhibition rate (%) Wheat [9] [%]	Growth inhibition rate (%) Wild oat [10] [%]	Growth inhibition rate (%) Barnyardgrass [11] [%]	Growth inhibition rate (%) Corn (corn (Zea mays L.) [12]) [%]	Growth inhibition rate (%) Crabgrass [13] [%]	Growth inhibition rate (%) Green foxtail [14] [%]	Growth inhibition rate (%) Prickly sida [15] [%]	Growth inhibition rate (%) Redroot pigweed [16] [%]	Growth inhibition rate (%) Rice (rice (Oryza sativa L.) [17]) [%]	Growth inhibition rate (%) Soybean [18] [%]	Growth inhibition rate (%) Velvetleaf [19] [%]	Growth inhibition rate (%) Wheat [20] [%]	also measured
CCc1ccc(Oc2ncc(C(F)(F)F)cc2Cl)cc1-c1c(O)cnn(C)c1=O [1-95]	100	100	100	100	95	0	80	0	45	99	100	80	100	100	0	0	50	0	0	0	
C=CCn1ncc(O)c(-c2cc(Oc3ncc(C(F)(F)F)cc3Cl)ccc2C)c1=O [1-167]	98	100	99	100	93	0	35	10	40	98	85	0	100	95	0	0	0	0	0	0	
Cc1ccc(Oc2cnc(C(F)(F)F)cn2)cc1-c1c(O)c(C)nn(C)c1=O [Compound 2-194]	85	60	90	90	35	0	0	10	0	10	95	40	83	99	0	0	30	0	0	0	
CC(=O)Oc1c(C)nn(C)c(=O)c1-c1cc(Oc2ncc(C(F)(F)F)cc2Cl)ccc1C [1-40]	100	100	99	100	100	40	80	10	93	98	100	30	100	100	0	0	60	0	0	0	
CC(=O)Oc1c(C)nn(C)c(=O)c1-c1cc(Oc2ncc(Br)cc2Cl)ccc1C [Compound 2-135]	93	93	90	95	95	0	80	0	88	90	90	0	75	90	0	0	0	10	0	0	
COCOc1c(C)nn(C)c(=O)c1-c1cc(Oc2ncc(C(F)(F)F)cc2Cl)ccc1C [1-132]	100	99	100	100	98	0	88	20	98	98	99	10	93	98	0	0	0	0	0	0	
COCC(=O)Oc1c(C)nn(C)c(=O)c1-c1cc(Oc2cnc3cc(Cl)ccc3n2)ccc1C [Compound 3-45]											95	0	20	85	0	0	25	0	0	0	Growth inhibition rate (%) Barnyardgrass [1, 21]: 100%; Growth inhibition rate (%) Corn (corn (Zea mays L.) [2]; [21]): 45%; Growth inhibition rate (%) Crabgrass [3, 21]: 99%; Growth inhibition rate (%) Green foxtail [4, 21]: 99%; Growth inhibition rate (%) Italian ryegrass [5, 21]: 100%; Growth inhibition rate (%) Redroot pigweed [6, 21]: 0%; Growth inhibition rate (%) Rice (rice (Oryza sativa L.) [7]; [21]): 98%; Growth inhibition rate (%) Soybean [8, 21]: 25%; Growth inhibition rate (%) Wheat [9, 21]: 98%; Growth inhibition rate (%) Wild oat [10, 21]: 100%
CCn1nc(C)c(O)c(-c2cc(Oc3cnc4cc(Cl)ccc4n3)ccc2C)c1=O [Compound 3-96]											99	0	98	85	0	0	75	0	0	0	Growth inhibition rate (%) Barnyardgrass [1, 21]: 100%; Growth inhibition rate (%) Corn (corn (Zea mays L.) [2]; [21]): 20%; Growth inhibition rate (%) Crabgrass [3, 21]: 100%; Growth inhibition rate (%) Green foxtail [4, 21]: 100%; Growth inhibition rate (%) Italian ryegrass [5, 21]: 99%; Growth inhibition rate (%) Redroot pigweed [6, 21]: 0%; Growth inhibition rate (%) Rice (rice (Oryza sativa L.) [7]; [21]): 95%; Growth inhibition rate (%) Soybean [8, 21]: 0%; Growth inhibition rate (%) Wheat [9, 21]: 95%; Growth inhibition rate (%) Wild oat [10, 21]: 98%
CCOC(=O)C(=O)Oc1c(C)nn(C)c(=O)c1-c1cc(Oc2cnc3cc(Cl)ccc3n2)ccc1C [Compound 3-79]											100	0	95	100	0	0	0	0	0	0	Growth inhibition rate (%) Barnyardgrass [1, 21]: 100%; Growth inhibition rate (%) Corn (corn (Zea mays L.) [2]; [21]): 50%; Growth inhibition rate (%) Crabgrass [3, 21]: 98%; Growth inhibition rate (%) Green foxtail [4, 21]: 100%; Growth inhibition rate (%) Italian ryegrass [5, 21]: 99%; Growth inhibition rate (%) Redroot pigweed [6, 21]: 0%; Growth inhibition rate (%) Rice (rice (Oryza sativa L.) [7]; [21]): 99%; Growth inhibition rate (%) Soybean [8, 21]: 30%; Growth inhibition rate (%) Wheat [9, 21]: 93%; Growth inhibition rate (%) Wild oat [10, 21]: 98%
